“And” between values parts separate entries of the source, which are not always exact repeats. Identical values can stand only once. Peptide text beside a SMILES is read from it.
How the values were obtained:
Assay type in all cases: in vivo, human
[1] = test system: pain and inflammation of joints and muscles; experiment: Topical administration for pain and inflammation of sprained leg, shoulder or muscles
Experimental: A typical example of a topical administration for systemic therapeutic effects was carried out as follows. A subject, having sprained their left leg near the knee with inflammation for several weeks had severe pain each time walking. Massage therapy and conventional treatments provided only a temporary relief. The subject topically applied and rubbed 0.4% (w/v) N—Ac-L-Val-L-Ala-NH2 in WEP442, pH 5.8 as prepared in Example 5 onto the left thigh and calf sites of skin for 30 seconds at night.
The subject topically applied twice daily 0.5% (w/v) N—Ac-L-Tyr-L-Tyr-NH2 in WEP442 solution, pH 6.7 as prepared in Example 5. […] At the end of 5 days, the right shoulder had 90% improvement as determined by clinical evaluation.
The subject topically applied twice daily 0.5% (w/v) N—Ac-L-Val-L-Ala-NH2 in WEP442 solution, pH 6.7 as prepared in Example 5 to the affected area of skin. The pain diminished with less inflammation over the next day.
In yet another embodiment, the volunteer subject topically applied once or twice daily the test compositions containing N-acyldipeptide derivatives of the present invention on the skin site above arthritic joints or painful muscles to provide therapeutic effects for the systemic disorders via topical administration.

insect bites = experiment: Topical application to insect bite lesions (itch, erythema, inflammation)
Experimental: A subject, having intensive itch and erythema on their left arm from insect bites, topically applied 10% (w/w) N—Ac-L-Leu-Gly-NH2 cream as formulated in Example 3 on the involved lesions.
A subject had multiple lesions of insect bites (mosquitoes) over the face and arms with itch and inflammatory lesions of more than 1 cm in size. For testing purposes, the subject divided the lesions into three groups: the first group was treated with vehicle control, the second and third groups were treated with active compositions. The subject topically applied twice daily 0.5% (w/v) N—Ac-L-Val-L-Ala-NH2 solution in WEP442, pH 5.9 on the lesions of the second group, and 0.5% (w/v) N—Ac-L-Tyr-L-Tyr-NH2 solution in WEP442, pH 6.7 (Example 5) on the lesions of the third group. […] The lesions in the second and third groups also started to improve over the next few days. At the end of three days, while there was no discernible change in the lesions treated with vehicle control in the first group, the lesions in the second and third groups had 90-100% improvement with nearly complete disappearance of inflammatory lesions.
A subject had multiple lesions of chigger bites (grass mites) over the legs with intensive itch and red inflammatory lesions. The subject topically applied twice daily 0.5% (w/v) N—Ac-L-Val-L-Ala-NH2 solution in WEP442, pH 6.7 (Example 5) on the lesions. […] The lesions on the legs had 100% improvement as judged by clinical evaluation.
In another embodiment, the volunteer subject topically applied the test compositions containing N-acyldipeptide derivatives of the present invention on involved skin or lesions once or twice daily for several weeks or until the involved lesions completely cleared and clinically changed to normal skin. As a control study, the subject also topically applied a vehicle control composition on the involved skin or lesions twice daily for the same period.

stretch marks = experiment: Topical treatment of stretch marks; settings: twice daily, four weeks; 0.5% (w/w) N-Ac-L-Val-L-Ala-NH2 cream on one lesion, 0.5% (w/v) N-Ac-L-Tyr-L-Tyr-NH2 in WEP442 pH 6.7 on the other
Description: Stretch marks, known as striae, are visible linear scars caused by changes in collagen fibers and over stretching of the skin. Stretch marks are quite common in most adult women, and they readily develop at puberty or during pregnancy. They are also very common in obese people with sudden loss of weight. At present, there is no cure or effective treatment.
A subject, having lost a total of about 60 pounds from overweight over the last 10 years, developed multiple lesions of stretch marks over the body. The subject selected two separate lesions of stretch marks, and topically applied twice daily 0.5% (w/w) N—Ac-L-Val-L-Ala-NH2 cream (Example 2) on one lesion and 0.5% (w/v) N—Ac-L-Tyr-L-Tyr-NH2 solution in WEP442, pH 6.7 (Example 5) on the other lesion with untreated lesions of stretch marks as a control.
At the end of four weeks, the fine lines of stretch marks started to disappear, and deeper lines became less deep. The treated lesions had approximately 25% improvement as judged by clinical evaluation.

forearm skin = experiment: Skin thickness of forearm by micrometer calipers after topical application; settings: for appearance of treated left forearm at end of treatment: 1-3% (w/v) in WEP442 topically twice daily for 1-6 weeks as in the example, vehicle forearm still loose, thin and wrinkled; for increase in skin thickness of treated left forearm: 3% (w/v) in WEP442 topically twice daily, vehicle forearm no change
Experimental: In one of the studies related to skin changes associated with aging, skin thickness was measured by micrometer calipers as follows. The skin was grasped with a 2×6 cm metal hinge; the internal faces of which were coated with emery cloth to prevent slippage, and manually squeezed to threshold subject discomfort. Combined thickness of two whole-skin layers including thickness of the two hinge leaves was measured with micrometer calipers. Thickness of the two hinge leaves was subtracted to determine the actual thickness of two whole-skin layers. Triplicate measurements on treated sites were done and an average number was used for calculation of the skin thickness. In other studies, test sites of skin 17 mm in diameter were used, the circular sites were marked with permanent ink. Intervening control sites were also 17 mm in diameter. Thickness of skin of all sites was measured directly by means of an electronic digital caliper. In this instance the jaws of the caliper were opened to 17 mm, applied with pressure to the skin sites and then closed to firm tightness. Thickness of skin was then read off the screen of the calipers. Measurements of all sites were made in triplicates.

[2] = test system: fungal infections of two toe nails; experiment: Topical treatment of fungal infections of toe nails; settings: twice daily, after several weeks; 0.5% (w/v) N-Ac-L-Tyr-L-Tyr-NH2 in WEP442 pH 6.7 on one nail, 0.5% (w/v) N-Ac-L-Tyr-L-Tyr-NHNHAc in WEP442 pH 5.5 on another
Description: A subject had fungal infections of two toe nails for many years. Topical treatments with clotrimazole and salicylic acid with or without glycolic acid had not been successful, as shown by the persistent appearance of white and sandy nail plates. The subject topically applied twice daily to one infected nail plate, 0.5% (w/v) N—Ac-L-Tyr-L-Tyr-NH2 in WEP442, pH 6.7 (Example 5), and to another infected nail plate, 0.5% (w/v) N—Ac-L-Tyr-L-Tyr-NHNHAc in WEP442, pH 5.5 (Example 5) for several months. […] Continued topical applications of the formulations should eradicate the nail infections, and the toe nails should start to grow normally.

[3] = mosquito bites face and arms, twice daily, 0.5% (w/v) N-Ac-L-Val-L-Ala-NH2 in WEP442 pH 5.9 (second group), 0.5% (w/v) N-Ac-L-Tyr-L-Tyr-NH2 in WEP442 pH 6.7 (third group)

## CC(=O)N[C@H](C(=O)N[C@@H](C)C(N)=O)C(C)C [N-Ac-L-Val-L-Ala-NH2] (Ac-Val-Ala-NH2)
[1]; 0.4% (w/v) in WEP442 pH 5.8 rubbed onto left thigh and calf at night, sprained leg, next morning
  pain on walking: could walk slowly without feeling any pain
[1]; 0.4% (w/v) in WEP442 pH 5.8 rubbed onto left thigh and calf for 30 seconds at night, sprained leg, next morning
  improvement of left leg by clinical evaluation: approximately 75%
[1]; 0.5% (w/v) in WEP442 pH 6.7 topically twice daily, end of five days
  muscle pain and inflammation in both arms: disappeared completely
[1]; 0.5% (w/v) in WEP442 pH 6.7 topically twice daily, muscle pain, end of five days
  improvement of arms by clinical evaluation: 95%-100%
Insect bites; 0.5% (w/v) in WEP442 pH 6.7 twice daily, chigger bites on legs
  itch after topical application: stopped within a few minutes
Insect bites; 0.5% (w/v) in WEP442 pH 6.7 twice daily, chigger bites on legs, end of five days
  improvement of lesions as judged by clinical evaluation: 100%
Insect bites; [3]
  itch after topical application: stopped completely within a few minutes
Stretch marks
  improvement of treated stretch mark lesions as judged by clinical evaluation: approximately 25%

## CC(=O)N[C@@H](Cc1ccc(O)cc1)C(=O)N[C@@H](Cc1ccc(O)cc1)C(N)=O [N-Ac-L-Tyr-L-Tyr-NH2] (Ac-Tyr-Tyr-NH2)
[1]; 0.5% (w/v) in WEP442 pH 6.7 topically twice daily, after three days
  pain of sprained right shoulder: disappeared completely
[1]; 0.5% (w/v) in WEP442 pH 6.7 topically twice daily, end of 5 days
  improvement of right shoulder by clinical evaluation: 90%
Insect bites; [3]
  itch after topical application: stopped completely within a few minutes
Stretch marks
  improvement of treated stretch mark lesions as judged by clinical evaluation: approximately 25%
Forearm skin
  appearance of treated left forearm at end of treatment: more firm, smooth, plump, and less wrinkled when lifted
Forearm skin; after 2 weeks
  increase in skin thickness of treated left forearm: 13% and 19%
Forearm skin; after 3 weeks
  increase in skin thickness of treated left forearm: 14%
Forearm skin; after 4 weeks
  increase in skin thickness of treated left forearm: 17% and 21%
[2]
  white and sandy appearance of infected nail plates: started to change gradually

## CC(=O)NNC(=O)[C@H](Cc1ccc(O)cc1)NC(=O)[C@H](Cc1ccc(O)cc1)NC(C)=O [N-Ac-L-Tyr-L-Tyr-NHNHAc]
Forearm skin
  appearance of treated left forearm at end of treatment: more firm, smooth, plump, and less wrinkled when lifted
Forearm skin; after 2 weeks
  increase in skin thickness of treated left forearm: 7%
Forearm skin; after 3 weeks
  increase in skin thickness of treated left forearm: 32%
Forearm skin; after 6 weeks
  increase in skin thickness of treated left forearm: 23%
Forearm skin; after one week
  increase in skin thickness of treated left forearm: 21%
[2]
  white and sandy appearance of infected nail plates: started to change gradually

From patent publication US11224565B2, “N-acyldipeptide derivatives and their uses” (NeoStrata Company, Inc., priority 2011, dated 2022)
